For 20 molecules, IC50 results are on record in US20230203058A1, “MACROCYCLIC DIAMINE DERIVATIVES AS ENT INHIBITORS FOR THE TREATMENT OF CANCERS, AND COMBINATION THEREOF WITH ADENOSINE RECEPTOR ANTAGONISTS” (ITEOS BELGIUM SA, priority 2020, published 2023).

Read-outs that look alike come from different tables or passages of the source.

For experiment [1], the system named is stimulated primary human T cells. In words: T cell proliferation assay (rescue of proliferation in presence of ATP, CFSE dilution). In kind it is cell-based. Particulars: 100 uM ATP. The procedure:
The aim of this study was to determine the potency of equilibrative nucleoside transporter 1 (ENT1) inhibitors to rescue proliferation by stimulated primary human T cells incubated in the presence of 100 uM Adenosine triphosphate (ATP), in baseline conditions (condition A) or in the presence of various proteins known to bind small molecules (condition B). Condition A: X-VIVO15 Condition B: X-VIVO15, 2% Human Serum Albumine (HSA) and 0,1% α-1-Acid Glycoprotein (AAG)
Cryopreserved purified human CD3+ T cells were thawed and washed twice with RPMI1640 medium, UltraGlutamine containing 10% hiFBS.
Cells were suspended in PBS containing 10% hiFBS. Cells were stained with CFSE by adding 2 µM solution in PBS, to get a final 1 µM CFSE solution. Cells were incubated while rotating for 5 minutes. Reaction was stopped by adding PBS with 10% FBS and cells were centrifuged for 5 minutes at 1500 rpm.
Cells were resuspended at 1.6 ×10^6 cells/mL, either in X-VIVO15 medium or in 4% Human Serum Albumin and 0,2% α-1-Acid Glycoprotein. 50 µL of cell suspension (8×10^4 T cells) was added to wells of sterile round-bottom 96-well plates. Cells were activated by adding 50 µL of anti-CD3 anti-CD28 coated microbeads, suspended either in XVIVO-15 medium or in 4% HSA and 0,2% α-1-Acid Glycoprotein, at a ratio of one microbead per two cells. Serial dilutions of the ENT1 inhibitors were prepared in X-VIVO15 from 10 mM stock solutions in DMSO, and 50 µL was added to the wells. ATP powder was diluted in X-VIVO15, and 50 µL of this compound was added to the wells to reach a final assay concentration of 100 µM. Final volume of 200 µL. The experiments were also performed in 384 well plates - all volumes reduced by a factor of 4 (12,5 µL) with a final volume of 50 µL. Experiments were performed in duplicate. The cells were placed in a 37° C. humidified tissue culture incubator with 5% CO2 for 72 hours for 96 well plates, 96 hours for 384 well plates. After 72 or 96 hours, proliferation was measured determined by CFSE dilution via flow cytometry.

In experiment [2] the target is T1, human ENT1 (Homo sapiens, UniProt Q99808).
T1 sequence (Q99808 1-456): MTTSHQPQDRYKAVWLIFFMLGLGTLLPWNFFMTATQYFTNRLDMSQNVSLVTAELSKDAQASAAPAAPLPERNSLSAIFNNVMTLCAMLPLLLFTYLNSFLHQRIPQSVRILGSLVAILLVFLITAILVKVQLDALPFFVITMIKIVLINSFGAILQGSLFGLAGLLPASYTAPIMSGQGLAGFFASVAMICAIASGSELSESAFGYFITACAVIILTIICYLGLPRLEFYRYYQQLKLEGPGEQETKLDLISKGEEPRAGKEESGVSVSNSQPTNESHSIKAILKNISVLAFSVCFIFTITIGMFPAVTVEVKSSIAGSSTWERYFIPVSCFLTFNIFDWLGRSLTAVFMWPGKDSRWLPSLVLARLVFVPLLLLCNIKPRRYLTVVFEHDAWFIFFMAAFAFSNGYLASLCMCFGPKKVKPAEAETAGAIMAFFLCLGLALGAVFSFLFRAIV
In words: ENT1 binding assay (competition with Sahenta-DY647 on JAR cells). Set-up: JAR cells expressing ENT1 were bought from ATCC® (HTB-144TM); host or cells: JAR cells (human choriocarcinoma line; whole cells). Particulars: competition with Sahenta-DY647 100 nM, 4° C. An outline of the steps:
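Competition binding on intact JAR cells (50000 per well) in HBSS with 10 mM Hepes and 0.1% BSA. Cells pre-incubated with compound 30 min at 4 °C, then Sahenta-DY647 added at its IC90 (100 nM) for another 30 min at 4 °C; after washing, fluorescence read at Ex 630/Em 670 nm.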

Setting [3] is: Condition A: X-VIVO15, read-out: T Cell proliferation (Condition A) IC50.
[4] abbreviates: Condition B: X-VIVO15, 2% HSA and 0,1% AAG, read-out: (2) T Cell proliferation (Condition B) IC50.

Regarding `COc1cc(C(=O)O[C@@H]2CCCOc3cccc(c3)C(=O)OCCCN3CCCN(CC2)CC3)cc(OC)c1OC` (stereo in doubt) [Compound 18, (12R)-6-oxo-5,8-dioxa-1(1,4)-diazepana-7(1,3)-benzenacyclotetradecaphane-12-yl 3,4,5-trimethoxybenzoate], the IC50 in experiment [1] (setting [3]) is 0.001 to 0.02 µM; in experiment [1] (setting [4]), over 0.5 µM; in experiment [2] it was 0.001 to 0.02 µM.

`COc1cc(C(=O)O[C@@H]2CCCOc3cc(cc(OC)c3OC)C(=O)OCCCN3CCCN(CC2)CC3)cc(OC)c1OC` [Compound 1, (12R)-74,75-dimethoxy-6-oxo-5,8-dioxa-1(1,4)-diazepana-7(1,3)-benzenacyclotetradecaphane-12-yl 3,4,5-trimethoxybenzoate]: the IC50 in experiment [1] (setting [3]) is under 0.001 µM; in experiment [1] (setting [4]), under 0.001 µM; in experiment [2], 0.001 to 0.02 µM.

On to `COc1cc(C(=O)O[C@@H]2CCCOc3cc(cc(OC)c3OC)C(=O)OCCCN3CCN(CC2)CC(F)(F)C3)cc(OC)c1OC` [Compound 6, (12R)-16,16-difluoro-74,75-dimethoxy-6-oxo-5,8-dioxa-1(1,4)-diazepana-7(1,3)-benzenacyclotetradecaphane-12-yl 3,4,5-trimethoxybenzoate], for which the figures for the IC50 in experiment [1] (setting [3]), in experiment [1] (setting [4]) and in experiment [2] were under 0.001 µM, 0.02 to 0.5 µM and 0.001 to 0.02 µM, respectively.

With `COc1cc2cc(c1OC)CCC[C@@H](OC(=O)c1cc(OC)c(OC)c(OC)c1)CCN1CCCN(CCCNC2=O)CC1` [Compound 14, (11R)-74,75-dimethoxy-6-oxo-5-aza-1(1,4)-diazepana-7(1,3)-benzenacyclotridecaphane-11-yl 3,4,5-trimethoxybenzoate], the IC50 was 0.001 to 0.02 µM in experiment [1] (setting [3]), over 0.5 µM in experiment [1] (setting [4]) and 0.001 to 0.02 µM in experiment [2].

As to `COc1cc2cc(c1OC)OCCC[C@@H](OC(=O)c1ccccc1)CCN1CCCN(CCCOC2=O)CC1` [Compound 32, (12R)-74,75-dimethoxy-6-oxo-5,8-dioxa-1(1,4)-diazepana-7(1,3)-benzenacyclotetradecaphane-12-yl benzoate], the IC50 in experiment [1] (setting [3]) is under 0.001 µM; in experiment [1] (setting [4]), 0.02 to 0.5 µM.

In the case of `COc1cc2cc(c1OC)OCCCC(OC(=O)CCOc1ccc(F)cc1)CCN1CCCN(CCCOC2=O)CC1` (centres unmarked) [Compound 104, 74,75-dimethoxy-6-oxo-5,8-dioxa-1(1,4)-diazepana-7(1,3)-benzenacyclotetradecaphane-12-yl 3-(4-fluorophenoxy)propanoate], in experiment [2], the IC50 is 0.001 to 0.02 µM.

In experiment [2], `COc1cc2cc(c1OC)OCCCC(OC(=O)C1CCC(F)(F)CC1)CCN1CCCN(CCCOC2=O)CC1` (centres unmarked) [Compound 105, 74,75-dimethoxy-6-oxo-5,8-dioxa-1(1,4)-diazepana-7(1,3)-benzenacyclotetradecaphane-12-yl 4,4-difluorocyclohexane-1-carboxylate] returned an IC50 of 0.001 to 0.02 µM.

`COc1cc2cc(c1OC)OCCCC(OC(=O)C1CCC(C(F)(F)F)CC1)CCN1CCCN(CCCOC2=O)CC1` (centres unmarked) [Compound 106, 74,75-dimethoxy-6-oxo-5,8-dioxa-1(1,4)-diazepana-7(1,3)-benzenacyclotetradecaphane-12-yl 4-(trifluoromethyl)cyclohexane-1-carboxylate] registered an IC50 in experiment [2] of 0.001 to 0.02 µM.

Consider `COc1cc2cc(c1OC)OCCCC(n1nnc(-c3ccccc3)n1)CCN1CCCN(CCCOC2=O)CC1` (centres unmarked) [Compound 107, 74,75-dimethoxy-12-(5-phenyl-2 H-tetrazol-2-yl)-5,8-dioxa-1(1,4)-diazepana-7(1,3)-benzenacyclotetradecaphan-6-one], for which the IC50 in experiment [2] is 0.001 to 0.02 µM.

As for `COc1cc2cc(c1OC)OCCCC(n1cc(-c3ccccc3)nn1)CCN1CCCN(CCCOC2=O)CC1` (centres unmarked) [Compound 108, 74,75-dimethoxy-12-(4-phenyl-1 H-1,2,3-triazol-1-yl)-5,8-dioxa-1(1,4)-diazepana-7(1,3)-benzenacyclotetradecaphan-6-one], the IC50 in experiment [2] is over 0.5 µM.

In experiment [2], `COc1cc2cc(c1OC)OCCCC(OC(=O)CCN1C(=O)CCC1=O)CCN1CCCN(CCCOC2=O)CC1` (centres unmarked) [Compound 110, 74,75-dimethoxy-6-oxo-5,8-dioxa-1(1,4)-diazepana-7(1,3)-benzenacyclotetradecaphane-12-yl 3-(2,5-dioxopyrrolidin-1-yl)propanoate] gave an IC50 of 0.02 to 0.5 µM.

Turning to `COc1cc2cc(c1OC)OCCCC(OC(=O)C1CCCC(OC)C1)CCN1CCCN(CCCOC2=O)CC1` (centres unmarked) [Compound 111, 74,75-dimethoxy-6-oxo-5,8-dioxa-1(1,4)-diazepana-7(1,3)-benzenacyclotetradecaphane-12-yl 3-methoxycyclohexane-1-carboxylate], in experiment [2], the IC50 was in the range of 0.001 to 0.02 µM.

In the case of `COc1cc2cc(c1OC)OCCCC(O/N=C/c1ccccc1)CCN1CCCN(CCCNC2=O)CC1` (centres unmarked) [Compound 114, (E)-benzaldehyde O-(74,75-dimethoxy-6-oxo-8-oxa-5-aza-1(1,4)-diazepana-7(1,3)-benzenacyclotetradecaphane-12-yl) oxime], in experiment [2], the IC50 was over 0.5 µM.

Consider `COc1cc2cc(c1OC)OCCC[C@@H](O/N=C/c1ccccc1)CCN1CCCN(CCCNC2=O)CC1` [Compound 115, (E)-benzaldehyde O-((12R)-74,75-dimethoxy-6-oxo-8-oxa-5-aza-1(1,4)-diazepana-7(1,3)-benzenacyclotetradecaphane-12-yl) oxime], for which, in experiment [2], the IC50 was over 0.5 µM.

With `COc1cc2cc(c1OC)OCCCC(O)CCN1CCCN(CCCNC2=O)CC1` (centres unmarked) [Compound 117, 12-hydroxy-74,75-dimethoxy-8-oxa-5-aza-1(1,4) -diazepana-7(1,3)-benzenacyclotetradecaphan-6-one], the IC50 in experiment [2] was over 0.5 µM.

`COc1cc(C(=O)O[C@H]2CCCOc3cc(cc(OC)c3OC)C(=O)OCCCN3CCN(CC2)CC(F)(F)C3)cc(OC)c1OC` [Compound 119, (12S)-16,16-difluoro-74,75-dimethoxy-6-oxo-5,8-dioxa-1(1,4)-diazepana-7(1,3)-benzenacyclotetradecaphane-12-yl 3,4,5-trimethoxybenzoate] returned an IC50 in experiment [2] of 0.001 to 0.02 µM.

Regarding `COc1cc(C(=O)OC2CCCOc3cc(cc(C(N)=O)c3Cl)C(=O)OCCCN3CCCN(CC2)CC3)cc(OC)c1OC` (centres unmarked) [Compound 120, 75-carbamoyl-74-chloro-6-oxo-5,8-dioxa-1(1,4)-diazepana-7(1,3)-benzenacyclotetradecaphane-12-yl 3,4,5-trimethoxybenzoate], the IC50 in experiment [2] lay within 0.001 to 0.02 µM.

Molecule `COc1cc(C(=O)O[C@H]2CCCOc3cc(cc(Cl)c3C(N)=O)C(=O)NCCCN3CCCN(CC2)CC3)cc(OC)c1OC` [Compound 121, (12S)-74-carbamoyl-75-chloro-6-oxo-8-oxa-5-aza-1(1,4)-diazepana-7(1,3)-benzenacyclotetradecaphane-12-yl 3,4,5-trimethoxybenzoate] came in with an IC50 in experiment [2] of 0.02 to 0.5 µM.

In experiment [2], `COc1cc(C(=O)OC2CCCOc3cc(cc(Cl)c3Br)C(=O)NCCCN3CCCN(CC2)CC3)cc(OC)c1OC` (centres unmarked) [Compound 122, 74-bromo-75-chloro-6-oxo-8-oxa-5-aza-1(1,4)-diazepana-7(1,3)-benzenacyclotetradecaphane-12-yl 3,4,5-trimethoxybenzoate] returned an IC50 of 0.001 to 0.02 µM.

On to `COc1cc(C(=O)OC2CCCOc3cc(cc(Cl)c3C#N)C(=O)NCCCN3CCCN(CC2)CC3)cc(OC)c1OC` (centres unmarked) [Compound 123, 75-chloro-74-cyano-6-oxo-8-oxa-5-aza-1(1,4)-diazepana-7(1,3)-benzenacyclotetradecaphane-12-yl 3,4,5-trimethoxybenzoate], for which the IC50 in experiment [2] lay within 0.001 to 0.02 µM.
